From US4436751A, “Nitrobenzyl monates antibacterial compounds” (Beecham Group Limited, priority 1980, dated 1984)
Converted amounts (≈) assume the structure as drawn. Read-outs that look alike come from different tables or passages of the source.

Experiments:
Assay type in all cases: cell-based
M. suipneumoniae NB12 = assay: Anti-mycoplasmal MIC in vitro, Friis broth agarose (Table 1); conditions: Mesomycoplasma hyopneumoniae, NB12, 144 h
M. suipneumoniae JF 435 = assay: as above; conditions: Mesomycoplasma hyopneumoniae, JF435, 144 h
M. suipneumoniae OCD 1 = assay: as above; conditions: Mesomycoplasma hyopneumoniae, OCD1, 144 h
M. hyorhinis ATCC 23234 = assay: as above; conditions: Mesomycoplasma hyorhinis, ATCC23234, 144 h
[1] = tested on: M. hyosynoviae ATOC 25591; assay: as above; conditions: 144 h
[2] = tested on: M. bovigenitalium ATOC 14173; assay: as above; conditions: 144 h
M. dispar RCTC 10125 = assay: as above; conditions: 144 h
Bord. bronchiseptica BO8 = assay: Veterinary bacteria MIC, Diagnostic Sensitivity Test Agar (Table 2); conditions: Bordetella bronchiseptica
Method: (§1) The values were determined using a two fold serial dilutions in Diagnostic Sensitivity Test Agar with an inoculum of 10^4 organisms and incubation for 18 hours at 37° C.

Bord. bronchiseptica BO9 = assay: as above; conditions: Bordetella bronchiseptica
Method: as §1

E. Coli NCTC 10418 [3] = assay: as above; conditions: Escherichia coli
Method: as §1

Past. haemolytica PA5 = assay: as above; conditions: Mannheimia haemolytica; Past. haemolytica PA5; DST Agar, 10^4 organisms, 18 hours 37° C.; read-out: MIC
Method: as §1

Past. multocida PA1 = assay: as above; conditions: Pasteurella multocida; Past. multocida PA1; DST Agar, 10^4 organisms, 18 hours 37° C.; read-out: MIC
Method: as §1

Strep. uberis SPO1 = assay: as above; conditions: Streptococcus uberis; Strep. uberis SPO1; DST Agar, 10^4 organisms, 18 hours 37° C.; read-out: MIC
Method: as §1

Bacillus subtilis 6633 = assay: Human bacteria MIC, nutrient agar with chocolated horse blood (Table 3)
Method: (§2) The values were determined by serial dilutions in nutrient agar with 5% chocolated horse blood after incubations for 18 hours at 37° C.

[4] = tested on: Corynebacterium xerosis 9755; assay: as above
Method: as §2

E. Coli NCTC 10418 [5] = assay: as above; conditions: Escherichia coli
Method: as §2

[6] = tested on: Haemophilus influenzae Q1; assay: as above
Method: as §2

K. aerogenes A = assay: as above; conditions: Klebsiella aerogenes
Method: as §2

P. mirabilis 889 = assay: as above
Method: as §2

[7] = tested on: Pasteurella multocida 1633; assay: as above; conditions: Pasteurella multocida 1633; nutrient agar 5% chocolated horse blood, 18 hours 37° C.; read-out: MIC
Method: as §2

[8] = tested on: Ps. aeruginosa NCTC 10662; assay: as above; conditions: Pseudomonas aeruginosa
Method: as §2

Sarcina lutea 8340 = assay: as above
Method: as §2

Staph. aureus Oxford = assay: as above; conditions: Staphylococcus aureus; Staph. aureus Oxford; nutrient agar 5% chocolated horse blood, 18 hours 37° C.; read-out: MIC
Method: as §2

Staph. aureus Russell = assay: as above; conditions: Staphylococcus aureus; Staph. aureus Russell; nutrient agar 5% chocolated horse blood, 18 hours 37° C.; read-out: MIC
Method: as §2

Staph. aureus W2827 = assay: as above; conditions: Staphylococcus aureus
Method: as §2

Strep. faecalis 1 = assay: as above
Method: as §2

[9] = tested on: Strep. pyogenes R80/421-A; assay: as above; conditions: Streptococcus pyogenes
Method: as §2

[10] = Bord. bronchiseptica BO8, DST Agar, 10^4 organisms, 18 hours 37° C., read-out: MIC
[11] = Bord. bronchiseptica BO9, DST Agar, 10^4 organisms, 18 hours 37° C., read-out: MIC
[12] = NCTC10418, E. Coli NCTC 10418, DST Agar, 10^4 organisms, 18 hours 37° C., read-out: MIC
[13] = Bacillus subtilis 6633, nutrient agar 5% chocolated horse blood, 18 hours 37° C., read-out: MIC
[14] = Corynebacterium xerosis 9755, nutrient agar 5% chocolated horse blood, 18 hours 37° C., read-out: MIC
[15] = NCTC10418, E. coli NCTC 10418, nutrient agar 5% chocolated horse blood, 18 hours 37° C., read-out: MIC
[16] = Haemophilus influenzae Q1, nutrient agar 5% chocolated horse blood, 18 hours 37° C., read-out: MIC
[17] = K. aerogenes A, nutrient agar 5% chocolated horse blood, 18 hours 37° C., read-out: MIC
[18] = Proteus mirabilis, P. mirabilis 889, nutrient agar 5% chocolated horse blood, 18 hours 37° C., read-out: MIC
[19] = NCTC10662, Ps. aeruginosa NCTC 10662, nutrient agar 5% chocolated horse blood, 18 hours 37° C., read-out: MIC
[20] = Micrococcus luteus, Sarcina lutea 8340, nutrient agar 5% chocolated horse blood, 18 hours 37° C., read-out: MIC
[21] = Staph. aureus W2827, nutrient agar 5% chocolated horse blood, 18 hours 37° C., read-out: MIC
[22] = Enterococcus faecalis, Strep. faecalis 1, nutrient agar 5% chocolated horse blood, 18 hours 37° C., read-out: MIC
[23] = Strep. pyogenes R80/421-A, nutrient agar 5% chocolated horse blood, 18 hours 37° C., read-out: MIC

| Compound | MIC (M. suipneumoniae NB12) [µg/mL] | MIC (M. suipneumoniae OCD 1) [µg/mL] | MIC (M. hyorhinis ATCC 23234) [µg/mL] | MIC [2] [µg/mL] | MIC (Bord. bronchiseptica BO8; [10]) [µg/mL] | MIC (Bord. bronchiseptica BO9; [11]) [µg/mL] | MIC (E. Coli NCTC 10418 [3]; [12]) [µg/mL] | MIC (Past. haemolytica PA5) [µg/mL] | MIC (Past. multocida PA1) [µg/mL] | MIC (Strep. uberis SPO1) [µg/mL] | MIC (Bacillus subtilis 6633; [13]) [µg/mL] | MIC [4, 14] [µg/mL] | MIC (E. Coli NCTC 10418 [5]; [15]) [µg/mL] | MIC [6, 16] [µg/mL] | MIC (K. aerogenes A; [17]) [µg/mL] | MIC (P. mirabilis 889; [18]) [µg/mL] | MIC [7] [µg/mL] | MIC [8, 19] [µg/mL] | MIC (Staph. aureus Oxford) [µg/mL] | MIC (Staph. aureus Russell) [µg/mL] | further results |
| --- | --- | --- | --- | --- | --- | --- | --- | --- | --- | --- | --- | --- | --- | --- | --- | --- | --- | --- | --- | --- | --- |
| C/C(=C\C(=O)OC(C)c1ccc([N+](=O)[O-])cc1)CC1OCC(CC2OC2C(C)C(C)O)C(O)C1O (stereo not drawn) [Example 4, 1-(p-nitrophenyl)ethyl monate A] | 1 (≈ 2.03 µM) | 1 (≈ 2.03 µM) | 0.5 (≈ 1.01 µM) | 0.05 (≈ 0.101 µM) | > 80 | 5 (≈ 10.1 µM) | > 80 | 20 (≈ 40.5 µM) | 5 (≈ 10.1 µM) | 0.312 (≈ 0.632 µM) | 1 (≈ 2.03 µM) | > 100 | > 100 | 1 (≈ 2.03 µM) | > 100 | > 100 | 10 (≈ 20.3 µM) | > 100 | 2.5 (≈ 5.07 µM) | 2.5 (≈ 5.07 µM) | MIC (M. suipneumoniae JF 435; M. suipneumoniae JF 435, in vitro, 6 days 37° C., read-out: MIC): 2.5 µg/mL (≈ 5.07 µM); MIC ([1]; M. hyosynoviae ATOC 25591, in vitro, 6 days 37° C., read-out: MIC): 0.1 µg/mL (≈ 0.203 µM); MIC (M. dispar RCTC 10125; M. dispar RCTC 10125, in vitro, 6 days 37° C., read-out: MIC): 0.1 µg/mL (≈ 0.203 µM); MIC (Sarcina lutea 8340; [20]): > 100 µg/mL; MIC (Staph. aureus W2827; [21]): 2.5 µg/mL (≈ 5.07 µM); MIC (Strep. faecalis 1; [22]): > 100 µg/mL; MIC [9, 23]: 1 µg/mL (≈ 2.03 µM) |
| C/C(=C\C(=O)OCc1cccc([N+](=O)[O-])c1)CC1OCC(C/C=C/C(C)C(C)O)C(O)C1O (stereo not drawn) [Example 5, m-nitrobenzyl monate C] | 0.25 (≈ 0.539 µM) | 0.25 (≈ 0.539 µM) | 0.25 (≈ 0.539 µM) | 0.1 (≈ 0.216 µM) | > 80 | 40 (≈ 86.3 µM) | > 80 | 40 (≈ 86.3 µM) | 10 (≈ 21.6 µM) | 0.625 (≈ 1.35 µM) | 1 (≈ 2.16 µM) | > 100 | > 100 | 1 (≈ 2.16 µM) | > 100 | > 100 | 25 (≈ 53.9 µM) | > 100 | 2.5 (≈ 5.39 µM) | 2.5 (≈ 5.39 µM) | MIC (M. suipneumoniae JF 435): 0.25 µg/mL (≈ 0.539 µM); MIC [1]: 0.25 µg/mL (≈ 0.539 µM); MIC (M. dispar RCTC 10125): 0.1 µg/mL (≈ 0.216 µM); MIC (Sarcina lutea 8340; [20]): > 100 µg/mL; MIC (Staph. aureus W2827; W2827, 18 h): 5 µg/mL (≈ 10.8 µM); MIC (Strep. faecalis 1; [22]): > 100 µg/mL; MIC [9, 23]: 1 µg/mL (≈ 2.16 µM) |
| C/C(=C\C(=O)OCc1ccccc1[N+](=O)[O-])CC1OCC(CC2OC2C(C)C(C)O)C(O)C1O (stereo not drawn) [C, O--nitrobenzyl monate A, reference compound] | 0.5 (≈ 1.04 µM) | 0.5 (≈ 1.04 µM) | 0.25 (≈ 0.521 µM) | 0.025 (≈ 0.0521 µM) |  |  |  | 10 (≈ 20.9 µM) | 2.5 (≈ 5.21 µM) | 0.07 (≈ 0.146 µM) |  |  |  |  |  |  | 2.5 (≈ 5.21 µM) |  | 2.5 (≈ 5.21 µM) | 2.5 (≈ 5.21 µM) | MIC (M. suipneumoniae JF 435): 0.5 µg/mL (≈ 1.04 µM); MIC [1]: 0.25 µg/mL (≈ 0.521 µM); MIC (M. dispar RCTC 10125): 0.1 µg/mL (≈ 0.209 µM); MIC (Bord. bronchiseptica BO8; BO8, 18 h): 80 µg/mL (≈ 167 µM); MIC (Bord. bronchiseptica BO9; BO9, 18 h): 10 µg/mL (≈ 20.9 µM); MIC (E. Coli NCTC 10418 [3]; NCTC10418, 18 h): > 80 µg/mL; MIC (Bacillus subtilis 6633; Bacillus subtilis, 6633, 18 h): 2.5 µg/mL (≈ 5.21 µM); MIC ([4]; Corynebacterium xerosis, 9755, 18 h): > 100 µg/mL; MIC (E. Coli NCTC 10418 [5]; NCTC10418, 18 h): > 100 µg/mL; MIC ([6]; Haemophilus influenzae, Q1, 18 h): 0.5 µg/mL (≈ 1.04 µM); MIC (K. aerogenes A; 18 h): > 100 µg/mL; MIC (P. mirabilis 889; Proteus mirabilis, 889, 18 h): > 100 µg/mL; MIC ([8]; NCTC10662, 18 h): > 100 µg/mL; MIC (Sarcina lutea 8340; Micrococcus luteus, 8340, 18 h): > 100 µg/mL; MIC (Staph. aureus W2827; [21]): 5 µg/mL (≈ 10.4 µM); MIC (Strep. faecalis 1; Enterococcus faecalis, 1, 18 h): > 100 µg/mL; MIC ([9]; R80/421A, 18 h): 0.5 µg/mL (≈ 1.04 µM) |
